Experimental data: the supplement of paper PMC10949913

Columns and labels:
[1] = system: CU-ACC1; assay: area under concentration-response curve (viability) (AUC (a.u.)); higher = less active; conditions: 48 h
Method in brief: (§1)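 After 48 h of treatment with 23 nL of each library compound at 11 concentrations, three adrenocortical carcinoma cell lines in 1,536-well plates (500–1,000 cells/well, 5 µL medium) were given CellTiter-Glo for 15 minutes at room temperature. Luminescence was then read and normalised per plate to vehicle and empty-well controls. AC50 and area under the curve were drawn from fitted concentration-response curves of inhibitory or non-responding classes only.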

[2] = system: NCI-H295R; assay: as above; conditions: 48 h
Method in brief: as §1

O=[S+]([O-])(CCSSCC[S+](=O)([O-])[O][Na])[O][Na]
area under concentration-response curve [1]: 469 | area under concentration-response curve [2]: 544

CC#CC(=O)N1CCC[C@H]1c1nc(-c2ccc(C(=O)Nc3ccccn3)cc2)c2c(N)nccn12
area under concentration-response curve [1]: 474 | area under concentration-response curve [2]: 509

COc1ccc2nc3[nH]nc(C)c3c(NCCOCCO)c2c1
area under concentration-response curve [1]: 545 | area under concentration-response curve [2]: 574

c1cc(OCCN2CCCCC2)cc(-c2n[nH]c3ccc(-c4nc[nH]n4)cc23)c1
area under concentration-response curve [1]: 525 | area under concentration-response curve [2]: 563

COC1=C(OC)C(=O)C(C/C=C(\C)CC/C=C(\C)CC/C=C(\C)CC/C=C(/C)CC/C=C(\C)CC/C=C(\C)CC/C=C(\C)CC/C=C(\C)CC/C=C(\C)CCC=C(C)C)=C(C)C1=O
area under concentration-response curve [1]: 502 | area under concentration-response curve [2]: 559

COC1=CC=CC(=C1/C2=N/CC3=C(N=C(NC4=CC(=C(C=C4)C(O)=O)OC)N=C3)C5=CC=C(Cl)C=C25)F
area under concentration-response curve [1]: 441 | area under concentration-response curve [2]: 469

COc1ccccc1C(=O)Nc1cc2c(cc1N1CCNC[C@H]1C)n(C)c(=O)n2C
area under concentration-response curve [1]: 479 | area under concentration-response curve [2]: 550

CCOC(=O)C1=CCCCC1[S+](=O)([O-])Nc1ccc(F)cc1Cl (stereo not drawn)
area under concentration-response curve [1]: 517 | area under concentration-response curve [2]: 573

COc1cc(N2CCN(C)CC2)ccc1Nc1ncc2c(n1)N(C)c1ccccc1C(=O)N2C
area under concentration-response curve [1]: 389 | area under concentration-response curve [2]: 459

c1ccc(-c2oc3ncnc(NC[C@@H]4CCCO4)c3c2-c2ccccc2)cc1
area under concentration-response curve [1]: 517 | area under concentration-response curve [2]: 572

CNC(=O)c1cc(Oc2ccc(NC(=O)Nc3cc(C(C)(C)C)nn3-c3ccc4ncccc4c3)c(F)c2)ccn1
area under concentration-response curve [1]: 496 | area under concentration-response curve [2]: 561

CCC[S+](=O)([O-])Nc1ccc(F)c(C(=O)c2c[nH]c3ncc(Cl)cc23)c1F
area under concentration-response curve [1]: 475 | area under concentration-response curve [2]: 493

CC1=CC=C(C=C1)N(C\C2=N\CCN2)C3=CC=CC(=C3)O
area under concentration-response curve [1]: 479 | area under concentration-response curve [2]: 518

Cn1cnc([N+](=O)[O-])c1Sc1ncnc2nc[nH]c12
area under concentration-response curve [1]: 427 | area under concentration-response curve [2]: 472

c1cnc2cc3c(cc2n1)C1CNCC3C1
area under concentration-response curve [1]: 536 | area under concentration-response curve [2]: 563

O=C(Nc1ccc(F)c(C(F)(F)F)c1)Nc1nnc(-c2ccncc2)s1
area under concentration-response curve [1]: 444 | area under concentration-response curve [2]: 464

CCCCOCCOc1nc(-c2ccc(C(=O)O)c(F)c2)sc1C
area under concentration-response curve [1]: 367 | area under concentration-response curve [2]: 399

Cc1c(F)ccc(C(=O)Nc2cc([N+](=O)[O-])ccc2N2CCN(C)CC2)c1Cl
area under concentration-response curve [1]: 457 | area under concentration-response curve [2]: 434

O=C(NOCCO)c1cc(CN2OCCCC2=O)c(F)c(F)c1Nc1ccc(I)cc1F
area under concentration-response curve [1]: 267 | area under concentration-response curve [2]: 267

CC(C)Nc1cc(C(F)(F)F)cc2nc(NC(=O)c3cccnc3)nn12
area under concentration-response curve [1]: 373 | area under concentration-response curve [2]: 412

O=C(Nc1cnccc1Cl)N1CCN(Cc2ccc3c(c2)OC(F)(F)O3)CC1
area under concentration-response curve [1]: 330 | area under concentration-response curve [2]: 414

O=C(O)c1cc(/N=N/c2ccc(S(=O)(=O)Nc3ccccn3)cc2)ccc1O
area under concentration-response curve [1]: 505 | area under concentration-response curve [2]: 522

CC1=NN(c2ccc(C)c(C)c2)C(=O)/C1=N/Nc1cccc(-c2cccc(C(=O)O)c2)c1O
area under concentration-response curve [1]: 437 | area under concentration-response curve [2]: 500

CCNC(=O)Nc1ncc(-c2cc(-c3c(C)cc(OC)cc3C)nc(-c3cnccn3)n2)s1
area under concentration-response curve [1]: 482 | area under concentration-response curve [2]: 520
